Data as given in US7034208B1, “Ahas inhibiting herbicide resistant wheat and method for selection thereof” (BASF Aktiengellschaft, priority 1991, dated 2006).

Tests used:
[1] = system: F1 hybrids FS1-FS4 x Fidel and Fidel wheat; assay: Genetic Condition Studies Experiment 1, F1 hybrids sprayed; format: in vivo
Source text: Experiment 1: Six flats containing Metro Mix 350™ are planted with F1 hybrids derived from each of the following crosses: FS1×Fidel: FS2×Fidel; FS3×Fidel; FS4×Fidel and Fidel (susceptible, parental cultivar). One week later, the flats are sprayed, one flat per herbicide rate, with PURSUIT™ at 50, 100, 150, 200, and 250 g/ha to determine the genetic condition of the herbicide resistant trait in the selections, FS1-FS4. The herbicide is applied with a laboratory belt sprayer at a rate of 950 L/ha with a belt speed of 12.5 sec/rev using sprayer nozzle #40015E. Tween 20™ is used as the surfactant at 0.25% v/v in the herbicide solutions. Plants are rated 10 days after herbicide treatment.

[2] = system: reciprocally crossed and selfed progeny of mutant wheat selections; assay: Genetic Condition Studies Experiment 2, reciprocal crosses and selfed progeny; format: in vivo; conditions: 200 g/ha postemergence
Source text: Experiment 2: This experiment continues the evaluation of the mutant wheat selections by examining herbicide resistance in reciprocal crossed and selfed material. Reciprocal crosses are made between M3 plants representing each of the original four mutant selections and between these selections and Fidel. Progeny of these crosses as well as selfed progeny of the plants used in the crosses are planted in 6 inch azalea pots in Metro Mix 350™. Ten pots of each cross are planted with two seeds planted per pot. Ten days later, all of the selfed and reciprocally crossed progeny are sprayed postemergence with PURSUIT™ at 200 g/ha. Herbicide treatment is applied as described in Experiment 1. Plants are thinned to one plant per pot (by removing the weaker of the two plants per pot) one week after herbicide treatment. There is 100% germination of seed from the mutant reciprocal crosses and greater than 90% germination of seed from the selfed mutants.

[3] = system: testcross progeny Fidel x (Fidel/FS1-FS4); assay: Genetic Condition Studies Experiment 3, testcrosses back to Fidel; format: in vivo, wheat; conditions: out of 49 test-cross progeny sprayed; 200 g/ha; rated three and one-half weeks later
Source text: Experiment 3: Testcrosses of the F1 hybrids (described in Experiment 1) back to Fidel are sprayed with 200 g/ha of PURSUIT™. The following testcrosses are planted in 6 inch azalea pots in Metro Mix 350™. The number of pots planted per cross is indicated by the number after the cross:
Approximately one month later, the plants are sprayed (except for Fidel). PURSUIT™ (200 g/ha) is applied as previously described. The plants are rated three and one-half weeks later.

[4] = system: F2 progeny of Fidel x FS1-FS4 crosses and Fidel; assay: Genetic Condition Studies Experiment 4, F2 of (Fidel x FS) selfed; format: in vivo, wheat; conditions: 200 g/ha postemergence
Source text: Experiment 4: The resistant wheat selections, FS1-FS4, are crossed to Fidel and the F1 seed from these crosses is selfed. The crosses are as follows: (Fidel×FS1) selfed (Fidel×FS2) selfed (Fidel×FS3) selfed (Fidel×FS4) selfed
The F2 progeny from these crosses and their susceptible progenitor variety Fidel are planted in flats. Five F2 progenies are used for each of the four crosses. One flat is planted of each progeny for each cross. The flats consist of six rows per flat with 25 seeds per row. The flats are sprayed postemergence with 200 g/ha PURSUIT™ eleven days later. The PURSUIT™ is applied as previously described.

[5] = system: mutant wheat selections FS1-FS4 and Fidel; format: in vivo; conditions: postemergence
Source text: This greenhouse test examines the level and spectrum of herbicide resistance of the mutant selections at the whole plant level. […] These lines are bulked according to their parental lines: FS1, FS2, FS3 and FS4. Fidel (wild-type) is used is a control and for performance comparison purposes. Five seeds from each of these lines (including Fidel) are planted per pot in six inch Azalea pots and are later thinned to three plants per pot. Three replicates are used per treatment (chemical and rate) for each line, and six replicates per wheat line are used as untreated controls. Plants are sprayed postemergence, 10 days after planting, with the following herbicides and rates: […]

[6] = system: AHAS (acetohydroxyacid synthase); assay: AHAS Enzyme Assay I and II (M4 Plants); format: biochemical, wheat
Protocol: Enzyme Extraction: For the extraction of AHAS, 10 grams of tissue are powdered in liquid nitrogen and then homogenized in 100 mM potassium phosphate buffer (pH 7.5) containing 10 mM pyruvate, 5 mM MgCl2, 5 uM EDTA, 100 uM FAD, 1 mM valine, 1 mM leucine, 10% glycerol, and 10 mM cysteine. The homogenate is filtered through a nylon cloth (53 uM mesh) and centrifuged at 25,000 g for 20 minutes. The supernatant fraction is brought to 50% saturation with respect to (NH4)2SO4 and allowed to stand for 20-30 minutes on ice. It is then centrifuged at 25,000 g for 20 minutes and the supernatant is discarded. The ammonium sulfate pellet is dissolved in 50 mM potassium phosphate buffer (pH 7.5) containing 1 mM EDTA and 100 mM NaCl and used for the assay procedures.
AHAS Assay: AHAS activity is measured by estimation of the product, acetolactate, after conversion by decarboxylation in the presence of acid to acetoin. Standard reaction mixtures contain the enzyme in 50 mM potassium phosphate buffer (pH 7.0) containing 100 mM sodium pyruvate, 10 mM MgCl2, 1 mM thiamine pyrophosphate, and 10 uM FAD. This mixture is incubated at 37° C. for one hour after which time the reaction is stopped with the addition of […] to make a final concentration of 0.85% […] in the tube. The reaction product is allowed to decarboxylate at 60° C. for 15 minutes. The acetoin formed is determined by incubating with creatine (0.17%) and 1-napthol (1.7% in 4N NaOH) by the method of Westerfield (Westerfield, W. W., J. Biol. Chem., 161, 495-502 (1945)). Maximum color is observed by incubation at 60° C. for 15 minutes and then further incubation at room temperature for 15 minutes. The absorption of color complex is measured at 520 nm. Appropriate checks of direct acetoin formation during the enzyme assay are made. Each assay is run at least in duplicate and the experiments are repeated a minimum of two times.
Herbicide Application: Two flats are planted with approximately 100 seeds of each wheat selection (FS1, FS2, and FS4) and Fidel in sterile Metro Mix 350. Ten days later, each flat is sprayed postemergence with 62.5 g/ha of PURSUIT™. The spray delivery rate is 400 L/ha with a belt speed of 8.2 sec/rev using nozzle #65015E. Tween 20™ is used as a surfactant at 0.25% v/v. The plants are harvested three days later and assayed for AHAS activity.
Enzyme Extraction and AHAS Assay: As previously described.
Herbicide Application: As described above (Enzyme Assay I) except that the spray delivery rate is 950 l/ha with a belt speed of 12.8 sec/rev using nozzle #40015E.

CCc1cnc(C2=NC(C)(C(C)C)C(=O)N2)c(C(=O)O)c1 (stereo not shown) [PURSUIT, 5-ethyl-2-(4-isopropyl-4-methyl-5-oxo-2-imidazolin-2-yl)-nicotinic acid]
rate at which Fidel is killed ([1]; Fidel, rated 10 days after treatment): 150 g/ha | damage to Fidel ([1]; Fidel, rates of 50 and 100 g/ha): severely injured | damage to F1 hybrids ([1]; hybrids FS1-FS4 x Fidel, 250 g/ha, rated 10 days after treatment): stunted but not killed | damage to mutant crosses [2]: None of the mutant crosses is damaged | test-cross progeny killed [3]: 20 | test-cross progeny that survive [3]: 29 | segregation ratio of F2 progenies ([4]; F2 of each of the four crosses (Fidel x FS1-FS4) selfed): 3 (resistant): 1 (susceptible) | lethality ([4]; plants heterozygous or homozygous for resistance): non-lethal | lethality ([4]; susceptible wheat): lethal to susceptible wheat | rate to which the mutant wheat is resistant ([5]; mutant wheat FS1-FS4, plant growth four weeks after treatment): more than 320 g/ha | increased tolerance of mutant wheat ([5]; mutant wheat FS1-FS4 versus Fidel, four weeks after treatment): ~8 fold | resistance of AHAS activity to inhibition ([6]; homozygous resistant mutant lines, unsprayed plants, compared to Fidel enzyme): moderate levels of resistance | resistance of AHAS activity to inhibition ([6]; selections sprayed with 62.5 g/ha PURSUIT, compared to sprayed Fidel): significantly higher level of resistance
